Measured values published in US20260262643A1, “HERBICIDAL BENZOXAZINES” (FMC CORPORATION, priority 2022, published 2026).

Columns and labels:
blackgrass [1] = test: Test A preemergence; assay type: in vivo, Alopecurus myosuroides
In short: (§1)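 Seeds in loam–sand blend received a directed preemergence soil spray of compound in non-phytotoxic solvent with surfactant; postemergence plants (2–10 cm, one- to two-leaf stage) were sprayed with the same formulation. After 10 days in greenhouse, injury was rated visually versus untreated controls, 0 (no effect) to 100 (complete control).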

corn [2] = test: Test A preemergence; assay type: in vivo, Zea mays
In short: as §1

foxtail, giant [3] = test: Test A preemergence; assay type: in vivo, Setaria faberi
In short: as §1

goosegrass [4] = test: Test A preemergence; assay type: in vivo, Eleusine indica
In short: as §1

kochia [5] = test: Test A preemergence; assay type: in vivo, Bassia scoparia
In short: as §1

oat, wild [6] = test: Test A preemergence; assay type: in vivo, Avena fatua
In short: as §1

pigweed, palmer [7] = test: Test A preemergence; assay type: in vivo, Amaranthus palmeri
In short: as §1

ragweed [8] = test: Test A preemergence; assay type: in vivo, Ambrosia artemisiifolia
In short: as §1

ryegrass, Italian [9] = test: Test A preemergence; assay type: in vivo, Lolium multiflorum
In short: as §1

soybean [10] = test: Test A preemergence; assay type: in vivo, Glycine max
In short: as §1

wheat [11] = test: Test A preemergence; assay type: in vivo, Triticum aestivum
In short: as §1

blackgrass [12] = test: Test A postemergence; assay type: in vivo, Alopecurus myosuroides
In short: as §1

corn [13] = test: Test A postemergence; assay type: in vivo, Zea mays
In short: as §1

foxtail, giant [14] = test: Test A postemergence; assay type: in vivo, Setaria faberi
In short: as §1

goosegrass [15] = test: Test A postemergence; assay type: in vivo, Eleusine indica
In short: as §1

kochia [16] = test: Test A postemergence; assay type: in vivo, Bassia scoparia
In short: as §1

oat, wild [17] = test: Test A postemergence; assay type: in vivo, Avena fatua
In short: as §1

pigweed, palmer [18] = test: Test A postemergence; assay type: in vivo, Amaranthus palmeri
In short: as §1

ragweed [19] = test: Test A postemergence; assay type: in vivo, Ambrosia artemisiifolia
In short: as §1

ryegrass, Italian [20] = test: Test A postemergence; assay type: in vivo, Lolium multiflorum
In short: as §1

soybean [21] = test: Test A postemergence; assay type: in vivo, Glycine max
In short: as §1

wheat [22] = test: Test A postemergence; assay type: in vivo, Triticum aestivum
In short: as §1

galium = test: Test A postemergence; assay type: in vivo, Galium aparine
In short: as §1

horseweed = test: Test A postemergence; assay type: in vivo, Erigeron canadensis
In short: as §1

barnyardgrass = test: Test B flooded paddy test; assay type: in vivo, Echinochloa crus-galli; details: 250 g ai/ha, Flood, 13 days, 0 to 100 scale (0 no effect, 100 complete control)
In short: (§2)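 Flooded to 3 cm at treatment time, 2-leaf plants got the test compound applied straight into the paddy water. They then stayed under constant flood in a greenhouse for 13 days. Ratings used a 0 to 100 visual scale.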

ducksalad = test: Test B flooded paddy test; assay type: in vivo, Heteranthera limosa; details: 250 g ai/ha, Flood, 13 days, 0 to 100 scale (0 no effect, 100 complete control)
In short: as §2

rice = test: Test B flooded paddy test; assay type: in vivo, Oryza sativa; details: 250 g ai/ha, Flood, 13 days, 0 to 100 scale (0 no effect, 100 complete control)
In short: as §2

sedge, umbrella = test: Test B flooded paddy test; assay type: in vivo, Cyperus difformis; details: 250 g ai/ha, Flood, 13 days, 0 to 100 scale (0 no effect, 100 complete control)
In short: as §2

[23] = 125 g ai/ha, visual injury after 10 days, 0 to 100 scale, 0 is no effect, 100 is complete control
[24] = 500 g ai/ha, 0 to 100 scale (0 no effect, 100 complete control), 10 days
[25] = 125 g ai/ha, postemergence, 10 days, 0 to 100 scale, 0 no effect, 100 complete control
[26] = 500 g ai/ha, postemergence, 10 days, visual injury, 0 to 100 scale (0 no effect, 100 complete control)
[27] = 125 g ai/ha, postemergence, 10 days, visual injury, 0 to 100 scale (0 no effect, 100 complete control)
[28] = 500 g ai/ha, Postemergence, 0 to 100 scale

CC(C)Oc1ccc(-n2cnc(C(C)C)n2)cc1C(=O)N1C[C@H](C)Oc2c(Cl)cccc21 [Compound 108]
80: Plant response rating, Kochia (kochia [5]; [24]) | Plant response rating, Ryegrass, Italian (ryegrass, Italian [9]; [23]) | Goosegrass plant response rating (goosegrass [15]; [25]) | Galium plant response rating (galium; [25]) | Plant response rating, Sedge, Umbrella (sedge, umbrella)
20: Oat, Wild plant response rating (oat, wild [17]; [25]) | Ryegrass, Italian plant response rating (ryegrass, Italian [20]; [25]) | Plant response rating, Horseweed (horseweed; [26]) | Plant response rating, Ducksalad (ducksalad)
60: Plant response rating, Corn (corn [13]; [26]) | Ragweed plant response rating (ragweed [19]; [25]) | Plant response rating, Ragweed (ragweed [19]; [26])
40: Plant response rating, Blackgrass (blackgrass [1]; [24]) | Plant response rating, Wheat (wheat [11]; [24]) | Corn plant response rating (corn [13]; [25]) | Plant response rating, Ryegrass, Italian (ryegrass, Italian [20]; [26])
100: Plant response rating, Foxtail, Giant (foxtail, giant [3]; [24]) | Plant response rating, Goosegrass (goosegrass [4]; [23]) | Plant response rating, Goosegrass (goosegrass [4]; [24]) | Plant response rating, Pigweed, Palmer (pigweed, palmer [7]; [23]) | Plant response rating, Pigweed, Palmer (pigweed, palmer [7]; [24]) | Plant response rating, Ryegrass, Italian (ryegrass, Italian [9]; [24]) | Plant response rating, Soybean (soybean [10]; [24]) | Soybean plant response rating (soybean [21]; [25]) | Plant response rating, Soybean (soybean [21]; [26])
50: Plant response rating, Soybean (soybean [10]; [23])
90: Plant response rating, Foxtail, Giant (foxtail, giant [3]; [23]) | Plant response rating, Ragweed (ragweed [8]; [24]) | Plant response rating, Foxtail, Giant (foxtail, giant [14]; [26]) | Plant response rating, Goosegrass (goosegrass [15]; [26]) | Plant response rating, Kochia (kochia [16]; [26]) | Plant response rating, Galium (galium; [26])
55: Plant response rating, Barnyardgrass (barnyardgrass)
0: Plant response rating, Blackgrass (blackgrass [1]; [23]) | Plant response rating, Corn (corn [2]; [23]) | Plant response rating, Kochia (kochia [5]; [23])
70: Foxtail, Giant plant response rating (foxtail, giant [14]; [25]) | Kochia plant response rating (kochia [16]; [25]) | Plant response rating, Oat, Wild (oat, wild [17]; [26]) | Pigweed, Palmer plant response rating (pigweed, palmer [18]; [25]) | Plant response rating, Pigweed, Palmer (pigweed, palmer [18]; [26])
30: Plant response rating, Corn (corn [2]; [24]) | Plant response rating, Oat, Wild (oat, wild [6]; [23]) | Plant response rating, Oat, Wild (oat, wild [6]; [24]) | Plant response rating, Ragweed (ragweed [8]; [23]) | Plant response rating, Wheat (wheat [11]; [23]) | Blackgrass plant response rating (blackgrass [12]; [25]) | Plant response rating, Blackgrass (blackgrass [12]; [26]) | Plant response rating, Wheat (wheat [22]; [26])
10: Wheat plant response rating (wheat [22]; [25]) | Horseweed plant response rating (horseweed; [25]) | Plant response rating, Rice (rice)

Cc1ccc(-n2cncn2)cc1C(=O)N1C[C@H](C)Oc2c(C)cccc21 [Compound 57]
10: Plant response rating, Kochia (kochia [16]; [27])
80: Plant response rating, Ryegrass, Italian (ryegrass, Italian [9]; [23]) | Plant response rating, Wheat (wheat [11]; [24]) | Plant response rating, Blackgrass (blackgrass [12]; [28]) | Plant response rating, Corn (corn [13]; [28]) | Plant response rating, Oat, Wild (oat, wild [17]; [27]) | Plant response rating, Galium (galium; [27])
90: Plant response rating, Blackgrass (blackgrass [1]; [24]) | Plant response rating, Goosegrass (goosegrass [4]; [23]) | Plant response rating, Oat, Wild (oat, wild [6]; [24]) | Plant response rating, Foxtail, Giant (foxtail, giant [14]; [27]) | Plant response rating, Foxtail, Giant (foxtail, giant [14]; [28]) | Plant response rating, Goosegrass (goosegrass [15]; [28]) | Plant response rating, Oat, Wild (oat, wild [17]; [28]) | Plant response rating, Wheat (wheat [22]; [28]) | Plant response rating, Sedge, Umbrella (sedge, umbrella)
15: Plant response rating, Barnyardgrass (barnyardgrass)
60: Plant response rating, Blackgrass (blackgrass [1]; [23])
30: Plant response rating, Kochia (kochia [5]; [24]) | Plant response rating, Pigweed, Palmer (pigweed, palmer [7]; [23]) | Plant response rating, Kochia (kochia [16]; [28]) | Plant response rating, Ragweed (ragweed [19]; [27])
100: Plant response rating, Foxtail, Giant (foxtail, giant [3]; [23]) | Plant response rating, Foxtail, Giant (foxtail, giant [3]; [24]) | Plant response rating, Goosegrass (goosegrass [4]; [24]) | Plant response rating, Pigweed, Palmer (pigweed, palmer [7]; [24]) | Plant response rating, Ryegrass, Italian (ryegrass, Italian [9]; [24]) | Plant response rating, Soybean (soybean [10]; [23]) | Plant response rating, Soybean (soybean [10]; [24]) | Plant response rating, Ryegrass, Italian (ryegrass, Italian [20]; [28]) | Plant response rating, Soybean (soybean [21]; [27]) | Plant response rating, Soybean (soybean [21]; [28]) | Plant response rating, Galium (galium; [28])
70: Plant response rating, Corn (corn [13]; [27]) | Plant response rating, Ryegrass, Italian (ryegrass, Italian [20]; [27]) | Plant response rating, Wheat (wheat [22]; [27])
40: Plant response rating, Corn (corn [2]; [24]) | Plant response rating, Kochia (kochia [5]; [23]) | Plant response rating, Goosegrass (goosegrass [15]; [27])
65: Plant response rating, Ducksalad (ducksalad)
0: Plant response rating, Corn (corn [2]; [23]) | Plant response rating, Ragweed (ragweed [8]; [23]) | Plant response rating, Horseweed (horseweed; [27]) | Plant response rating, Rice (rice)
20: Plant response rating, Wheat (wheat [11]; [23]) | Plant response rating, Pigweed, Palmer (pigweed, palmer [18]; [27]) | Plant response rating, Horseweed (horseweed; [28])
50: Plant response rating, Oat, Wild (oat, wild [6]; [23]) | Plant response rating, Ragweed (ragweed [8]; [24]) | Plant response rating, Blackgrass (blackgrass [12]; [27]) | Plant response rating, Pigweed, Palmer (pigweed, palmer [18]; [28]) | Plant response rating, Ragweed (ragweed [19]; [28])
